Assay results as given in patent publication EP0449649A2, “Antineoplastic quinones and methods of using same” (priority 1990, dated 1991).
Converted amounts (≈) assume the structure as drawn. Like-named read-outs stand apart in the source and are kept apart here.

Tests used:
8226/S human myeloma = test: in vitro screen against 8226/S myeloma; format: cell-based; conditions: read-out: IC₅₀
Description: (§1) (see: Salmon, S.E. et al, Cancer Treat Rep., 1981, 65, 102; Salmon, S.E. et al, N. Engl. J. Med., 1978, 298, 1231;and Albert, DS, Cancer Chemother Pharmacol, 1981, 6, 253). The protocol employed for MTT assays are reported. (see: Mossman T.J. Immunol Methods, 1983, 65, 55).
6-(N-Aziridinyl)-7-methyl-2, 3-dihydro - 1H- pyrrolo [1, 2-ª] benzimidazole-5, 8-dione-3-acetate (1c) was screened for in vitro activity against 8226/S human myeloma.
6-(N-Aziridinyl)-7-methyl-2, 3-dihydro - 1H- pyrrolo [1, 2-ª] benzimidazole-5, 8-dione-3-carbamate (1d) was screened for in vitro activity against 8226/S myeloma.

Fresh ovarian tumors = test: clonogenic assay on fresh ovarian tumors from patients; format: cell-based, human
Protocol: as §1
Fresh ovarian tumors were collected from twelve (12) confirmed ovarian cancer patients. Azimitosene 1c was tested in vitro using the clonogenic assay described by Salmon et al, Salmon et al, and Albert et al (op cit). The IC₅₀ data (the drug concentration required to obtain 50% inhibition of tumor colony formation after 1 hour exposure to test compound) obtained from these assays are shown in Table 1.

WiDr human colon cancer = test: in vitro screen against WiDr colon cancer; format: cell-based; conditions: read-out: IC₅₀
Description: as §1
6-(N-Aziridinyl)-7-methyl-2, 3-dihydro - 1H- pyrrolo [1, 2-ª] benzimidazole-5, 8-dione-3-acetate (1c) was screened for in vitro activity against WiDr human colon cancer.
6-(N-Aziridinyl)-7-methyl-2, 3-dihydro - 1H- pyrrolo [1, 2-ª] benzimidazole-5, 8-dione-3-carbamate (1d) was screened for in vitro activity against WiDr/S human colon cancer.

SW480 human colon cancer = test: in vitro screen against SW480 colon cancer; format: cell-based
Description: as §1
6-(N-Aziridinyl)-7-methyl-2, 3-dihydro - 1H- pyrrolo [1, 2-ª] benzimidazole-5, 8-dione-3-acetate (1c) was screened for in vitro activity against SW480 human colon cancer.
6-(N-Aziridinyl)-7-methyl-2, 3-dihydro - 1H- pyrrolo [1, 2-ª] benzimidazole-5, 8-dione-3-carbamate (1d) was screened for in vitro activity against SW480 human colon cancer.

[1] = tested on: cisplatin-resistant (2008/R) ovarian cancers; test: in vitro screen against cisplatin-resistant ovarian cancer; format: cell-based; conditions: for IC₅₀: in vitro
Description: as §1
(§2) 6-(N-Aziridinyl)-7-methyl-2, 3-dihydro - 1H- pyrrolo [1, 2-ª] benzimidazole-5, 8-dione-3-acetate (1c) was screened for in vitro activities against cisplatin-sensitive (2008/S) and cisplatin-resistant (2008/R) ovarian cancers.
(§3) 6-(N-Aziridinyl)-7-methyl-2, 3-dihydro - 1H- pyrrolo [1, 2-a] benzimidazole-5, 8-dione-3-carbamate (1d) was screened for in vitro activity against cisplatin-sensitive (2008/S) and cisplatin-resistant (2008/R) ovarian cancers.

[2] = tested on: 110-fold doxorubicin-resistant ovarian cancer (2780/DOX); test: in vitro screen against doxorubicin-resistant ovarian cancer; format: cell-based; conditions: read-out: IC₅₀
Description: as §1
(§4) 6-(N-Aziridinyl)-7-methyl-2, 3-dihydro - 1H- pyrrolo [1, 2-a] benzimidazole-5, 8-dione-3-acetate (1c) was screened for in vitro activity against doxorubicin-sensitive ovarian cancer (2780/S) and 110-fold doxorubicin-resistant ovarian cancer (2780/DOX).
(§5) 6-(N-Aziridinyl)-7-methyl-2, 3-dihydro - 1H- pyrrolo [1, 2-ª] benzimidazole-5, 8-dione-3-carbamate (1d) was screened for in vitro activity against doxorubicin-sensitive (2780/S) and doxorubicin-resistant (2780/DOX) ovarian cancer.

[3] = tested on: doxorubicin-sensitive ovarian cancer (2780/S); test: in vitro screen against doxorubicin-sensitive ovarian cancer; format: cell-based; conditions: read-out: IC₅₀
Description: as §1, §4, §5

[4] = tested on: cisplatin-sensitive (2008/S) ovarian cancers; test: in vitro screen against cisplatin-sensitive ovarian cancer; format: cell-based; conditions: for IC₅₀: in vitro
Description: as §1, §2, §3

**Q.** For `CC(=O)OC1CCn2c1nc1c2C(=O)C(C)=C(N2CC2)C1=O` (stereo not drawn) [1c, 6-(N-aziridinyl)-7-methyl-2,3-dihydro-1H-pyrrolo [1,2-a]benzimidazole-5,8-dione-3-Acetate], which IC50 (8226/S human myeloma) is on record?
**A.** 100 nM

**Q.** And the IC50 (Fresh ovarian tumors; 50% inhibition of tumor colony formation after 1 hour exposure, each value is the tumor of one patient (Patient No. 1-12))?
**A.** unachievable

**Q.** What about the IC50 (Fresh ovarian tumors; Homo sapiens, median over the fresh ovarian tumors of Table 1, read-out: median IC₅₀) of the same molecule?
**A.** 0.05 µg/mL (≈ 0.166 µM)

**Q.** What about the “ovarian cancers that respond” value (Fresh ovarian tumors; share of the 12 fresh ovarian tumors of Table 1) of the same molecule?
**A.** 91%

**Q.** And the IC50 (WiDr human colon cancer; WiDr)?
**A.** 6 nM

**Q.** What about the IC50 (SW480 human colon cancer; SW480, read-out: IC₅₀) of the same molecule?
**A.** 9 nM

**Q.** What about the IC50 ([1]; Homo sapiens, read-out: IC₅₀) of the same molecule?
**A.** 7 nM

**Q.** What about the IC50 [2] of the same molecule?
**A.** 16 nM

**Q.** What about the IC50 [3] of the same molecule?
**A.** 0.6 nM

**Q.** What about the IC50 ([4]; Homo sapiens, read-out: IC₅₀) of the same molecule?
**A.** 7 nM

**Q.** What does the source list for `CC1=C(N2CC2)C(=O)c2nc3n(c2C1=O)CCC3OC(N)=O` (stereo not drawn) [1d, 6-N-Aziridinyl-7-methyl-2,3-dihydro-1H-pyrrolo [1,2-a]benzimidazole-5,8-dione-3-Carbamate]?
**A.** IC50 (8226/S human myeloma): 140 nM; IC50 (WiDr human colon cancer; WiDr): 100 nM; IC50 (SW480 human colon cancer; SW480, read-out: IC₅₀): 19 nM; IC₅₀ [1]: not attainable; IC50 [2]: 200 nM; IC50 [3]: 100 nM; IC₅₀ [4]: not attainable

**Q.** `CO[C@@]12[C@H](COC(N)=O)C3=C(C(=O)C(C)=C(N)C3=O)N1C[C@@H]1N[C@@H]12` [MMC, mitomycin C, reference compound] was tested. Which IC50 (8226/S human myeloma; 8226/S, in vitro) did it give?
**A.** 200 nM

**Q.** And the IC50 (WiDr human colon cancer; WiDr (WiDr/S), in vitro)?
**A.** 20 nM

**Q.** And the IC50 (SW480 human colon cancer; SW480, in vitro, read-out: IC₅₀)?
**A.** 7 nM

**Q.** And the IC₅₀ [1]?
**A.** not attainable

**Q.** And the IC50 ([2]; 2780/DOX, in vitro)?
**A.** 200 nM

**Q.** What about the IC50 ([3]; 2780/S, in vitro) of the same molecule?
**A.** 100 nM

**Q.** And the IC₅₀ [4]?
**A.** not attainable
